Experimental data as given in US9944641B2, “Isoquinolinone derivatives useful in the treatment of cancer” (PIERRE FABRE MEDICAMENT, priority 2014, dated 2018).

How the values were obtained:
FLT3 D835Y = molecular target: T1, FLT3 D835Y (Homo sapiens, UniProt P36888, D835Y); experiment: Lanthascreen TR-FRET enzymatic assay, FLT3 D835Y; assay type: binding; conditions: 1 hour at 25° C., 1% DMSO, read-out: Enzymology (IC50) FLT3 D835Y
T1 construct: purchased Merck Millipore 14-610
T1 sequence (P36888 27-993 D835Y): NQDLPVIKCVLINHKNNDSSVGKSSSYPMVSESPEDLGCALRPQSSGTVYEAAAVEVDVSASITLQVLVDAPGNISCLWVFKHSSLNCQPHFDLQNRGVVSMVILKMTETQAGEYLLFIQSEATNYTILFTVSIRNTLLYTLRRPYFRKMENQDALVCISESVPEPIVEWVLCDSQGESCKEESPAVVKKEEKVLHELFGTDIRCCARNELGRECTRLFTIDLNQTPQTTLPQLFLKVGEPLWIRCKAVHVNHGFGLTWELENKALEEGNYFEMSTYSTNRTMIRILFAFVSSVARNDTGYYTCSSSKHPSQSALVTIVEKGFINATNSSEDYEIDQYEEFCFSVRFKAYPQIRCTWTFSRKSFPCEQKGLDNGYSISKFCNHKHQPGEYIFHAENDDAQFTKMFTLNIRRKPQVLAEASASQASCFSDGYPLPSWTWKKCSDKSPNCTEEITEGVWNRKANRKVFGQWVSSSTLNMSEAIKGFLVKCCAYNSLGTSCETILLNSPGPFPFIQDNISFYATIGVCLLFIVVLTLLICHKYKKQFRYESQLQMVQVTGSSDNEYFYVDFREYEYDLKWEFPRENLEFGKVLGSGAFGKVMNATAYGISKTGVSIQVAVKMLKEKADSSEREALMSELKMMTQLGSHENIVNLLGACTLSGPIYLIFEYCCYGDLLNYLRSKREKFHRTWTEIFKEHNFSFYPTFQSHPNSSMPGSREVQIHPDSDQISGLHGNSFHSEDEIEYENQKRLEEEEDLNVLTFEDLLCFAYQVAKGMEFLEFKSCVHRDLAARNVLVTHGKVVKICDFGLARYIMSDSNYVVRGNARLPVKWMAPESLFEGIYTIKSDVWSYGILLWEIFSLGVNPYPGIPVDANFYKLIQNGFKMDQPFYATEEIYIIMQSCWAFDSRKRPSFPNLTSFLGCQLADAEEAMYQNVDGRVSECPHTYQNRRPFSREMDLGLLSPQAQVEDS
Protocol: (§1) Recombinant FLT3 (#PV3182), JAK2 (#PV4210) and JAK3 (#PV3855) enzymes were purchased from Life Technologies. FLT3-ITD (#0778-0000-1) and FLT3^D835Y (#14-610) were respectively purchased from Proquinase and Merck Millipore.
(§2) The assays were conducted in 384-well plates based on Life Technologies Lanthascreen® TR-FRET methodologies.
FLT3-ITD or FLT3^D835Y assays: 15 nM of FLT3-ITD or FLT3^D835Y, 3 nM of the 236 kinase tracker (Life Technologies #PV5592) and 6 nM of the Europium-tagged anti-GST Lanthascreen® antibody are mixed into 15 μL total volume reaction mixture.
(§3) IC50s were determined from a 8-point dose-response curve spanning a >1000 fold concentration range using a 10 mM compound solution stock into pure DMSO (Sigma #D8418). The overall DMSO concentrations of tested solutions were 1%.
(§4) IC50s were generated with the software Prism (Graphpad).

JAK2 = molecular target: T2, JAK2 (Homo sapiens, UniProt O60674); experiment: Lanthascreen TR-FRET enzymatic assay, JAK2; assay type: binding; conditions: recombinant JAK2, 1 hour at 25° C., 1% DMSO; read-out: Enzymology (IC50) JAK2
T2 construct: purchased Life Technologies PV4210
T2 sequence (O60674 whole entry): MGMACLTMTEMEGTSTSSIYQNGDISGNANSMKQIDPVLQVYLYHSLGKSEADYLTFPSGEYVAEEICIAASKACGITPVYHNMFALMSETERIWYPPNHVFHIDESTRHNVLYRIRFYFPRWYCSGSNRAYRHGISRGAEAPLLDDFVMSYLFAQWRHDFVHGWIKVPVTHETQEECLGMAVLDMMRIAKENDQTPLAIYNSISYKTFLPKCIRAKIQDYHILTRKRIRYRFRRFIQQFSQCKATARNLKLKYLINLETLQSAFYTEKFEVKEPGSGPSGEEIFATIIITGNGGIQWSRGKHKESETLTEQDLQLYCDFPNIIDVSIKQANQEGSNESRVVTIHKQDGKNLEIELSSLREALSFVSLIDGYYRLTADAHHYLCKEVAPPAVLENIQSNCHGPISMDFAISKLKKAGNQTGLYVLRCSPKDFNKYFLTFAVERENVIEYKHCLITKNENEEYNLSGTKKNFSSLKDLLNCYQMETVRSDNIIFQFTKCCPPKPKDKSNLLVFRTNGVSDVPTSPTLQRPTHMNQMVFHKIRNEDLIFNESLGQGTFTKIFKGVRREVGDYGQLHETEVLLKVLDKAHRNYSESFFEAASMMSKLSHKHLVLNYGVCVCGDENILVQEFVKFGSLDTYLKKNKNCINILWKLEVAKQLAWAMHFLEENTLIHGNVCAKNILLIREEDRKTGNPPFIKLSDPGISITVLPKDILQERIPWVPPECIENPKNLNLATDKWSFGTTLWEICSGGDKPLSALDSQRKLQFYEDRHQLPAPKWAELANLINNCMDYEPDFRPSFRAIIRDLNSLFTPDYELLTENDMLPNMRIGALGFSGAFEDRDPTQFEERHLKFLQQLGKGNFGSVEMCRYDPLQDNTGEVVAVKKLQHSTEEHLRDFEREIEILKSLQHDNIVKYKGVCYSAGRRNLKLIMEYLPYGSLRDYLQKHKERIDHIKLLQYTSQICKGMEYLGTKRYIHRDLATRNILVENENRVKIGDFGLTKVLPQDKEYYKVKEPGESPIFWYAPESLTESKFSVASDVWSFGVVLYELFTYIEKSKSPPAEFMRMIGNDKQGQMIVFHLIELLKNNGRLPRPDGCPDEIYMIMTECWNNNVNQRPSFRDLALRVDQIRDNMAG
Protocol: as §1, §2
JAK2 assays: 15 nM of JAK2, 150 nM of the 236 kinase tracker (Life Technologies #PV5592) and 6 nM of the Europium-tagged anti-GST Lanthascreen® antibody are mixed into 15 μL total volume reaction mixture.
as §3, §4

FLT3 wt = molecular target: T3, FLT3 wt (Homo sapiens, UniProt P36888); experiment: Lanthascreen TR-FRET enzymatic assay, FLT3; assay type: binding; conditions: recombinant FLT3, 1 hour at 25° C., 1% DMSO; read-out: Enzymology (IC50) FLT3 wt
T3 construct: purchased Life Technologies PV3182
T3 sequence (P36888 564-993 limits assumed): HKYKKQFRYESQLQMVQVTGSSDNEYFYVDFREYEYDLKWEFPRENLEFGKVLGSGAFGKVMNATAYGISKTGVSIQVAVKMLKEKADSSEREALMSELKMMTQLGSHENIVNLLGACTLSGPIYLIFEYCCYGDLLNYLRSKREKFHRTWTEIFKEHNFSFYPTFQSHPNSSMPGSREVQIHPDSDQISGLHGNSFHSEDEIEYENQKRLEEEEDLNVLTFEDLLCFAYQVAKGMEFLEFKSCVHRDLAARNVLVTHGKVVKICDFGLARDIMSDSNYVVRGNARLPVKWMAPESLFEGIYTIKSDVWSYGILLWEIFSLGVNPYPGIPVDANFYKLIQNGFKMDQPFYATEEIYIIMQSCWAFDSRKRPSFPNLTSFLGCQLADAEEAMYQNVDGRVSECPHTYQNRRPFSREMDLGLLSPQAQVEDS
Protocol: as §1, §2
FLT3 assays: 15 nM of FLT3, 3 nM of the 236 kinase tracker (Life Technologies #PV5592) and 6 nM of the Europium-tagged anti-His Lanthascreen® antibody are mixed into 15 μL total volume reaction mixture.
as §3, §4

MV4-11 cells = experiment: Antiproliferative activity assay (ATPLite), MV4-11; assay type: cell-based; conditions: Homo sapiens, MV4-11 (AML, FLT3-ITD), 72 h, read-out: Inhibition of proliferation (EC50) MV411
Protocol: Cell lines MV4-11 and MOLM-13 are grown according to conditions depicted in Table 2 following the provider recommendations.
Assays are being run into 96-well plates. Cells are passaged at Day 0, seeded at Day 1 and added with increasing quantities of the compounds to evaluate. Plates are incubated for 72 h at 37° C. under a 5% CO2 atmosphere.
Half-logarithmic dilutions from compounds stock solutions in DMSO (Sigma #D8414) were done in order to obtain 0.1% DMSO solutions.
Cellular viability is measured at Day 4 with the ATPLite (Perkin Elmer #6016947) kit.

Structure (SMILES) | IC50 (FLT3 D835Y) [nM] | IC50 (JAK2) [nM] | IC50 (FLT3 wt) [nM] | EC50 (MV4-11 cells) [nM]
CN1CCN(c2ccc(Nc3ncc4c(n3)c3ccc(N)cc3c(=O)n4C)cc2)CC1 [Compound C4, 8-amino-5-methyl-2-((4-(4-methylpiperazin-1-yl)phenyl)amino)pyrimido[5,4-c]isoquinolin-6(5H)-one] | < 25 | 100 to 1000 | 25 to 100 | < 25
CN1CCN(c2cccc(Nc3ncc4c(n3)c3ccc(N)cc3c(=O)n4C)c2)CC1 [Compound C6, 8-amino-5-methyl-2-((3-(4-methylpiperazin-1-yl)phenyl)amino)pyrimido[5,4-c]isoquinolin-6(5H)-one] | < 25 | 100 to 1000 | 25 to 100 | 25 to 100
COc1cc2c(cc1N)c(=O)n(C)c1cnc(Nc3ccc(N4CCN(C)CC4)cc3)nc21 [Compound C10, 8-amino-9-methoxy-5-methyl-2-((4-(4-methylpiperazin-1-yl)phenyl)amino) pyrimido[5,4-c]isoquinolin-6(5H)-one] | < 25 | 100 to 1000 | 25 to 100 | < 25
COc1cc2c(cc1N)c(=O)n(C)c1cnc(Nc3cc(N)cc(F)c3)nc21 [Compound C26, 8-amino-2-((3-amino-5-fluorophenyl)amino)-9-methoxy-5-methylpyrimido [5,4-c]isoquinolin-6(5H)-one] | 25 to 100 | 100 to 1000 | 100 to 1000 | 25 to 100
Cn1c(=O)c2cc(N)ccc2c2nc(Nc3ccc(OCCN4CCCC4)cc3)ncc21 [Compound C34, 8-amino-5-methyl-2-((4-(2-(pyrrolidin-1-yl)ethoxy)phenyl)amino)pyrimido[5,4-c]isoquinolin-6(5H)-one] | < 25 | 100 to 1000 | 25 to 100 | 100 to 1000
COc1cc2c(cc1N)c(=O)n(C)c1cnc(Nc3ccc(OCCN4CCCC4)cc3)nc21 [Compound C42, 8-amino-9-methoxy-5-methyl-2-((4-(2-(pyrrolidin-1-yl)ethoxy)phenyl)amino) pyrimido[5,4-c]isoquinolin-6(5H)-one] | < 25 | 100 to 1000 | 100 to 1000 | 100 to 1000

Second part, the compound after the results:

IC50 (FLT3 D835Y) [nM] | IC50 (JAK2) [nM] | IC50 (FLT3 wt) [nM] | EC50 (MV4-11 cells) [nM] | Structure (SMILES)
< 25 | 25 to 100 | 25 to 100 | 25 to 100 | Cn1c(=O)c2cc(N)ccc2c2nc(Nc3cccc(N)c3)ncc21 [Compound C2, 8-amino-2-((3-aminophenyl)amino)-5-methylpyrimido[5,4-c]isoquinolin-6(5H)-one]
< 25 | 100 to 1000 | 100 to 1000 | 100 to 1000 | Cn1c(=O)c2cc(N)ccc2c2nc(Nc3ccc(F)c(N)c3)ncc21 [Compound C22, 8-amino-2-((3-amino-4-fluorophenyl)amino)-5-methylpyrimido[5,4-c]isoquinolin-6(5H)-one]
25 to 100 | 100 to 1000 | 100 to 1000 | 25 to 100 | COc1cc2c(cc1N)c(=O)n(C)c1cnc(Nc3ccc(F)c(N)c3)nc21 [Compound C28, 8-amino-2-((3-amino-4-fluorophenyl)amino)-9-methoxy-5-methylpyrimido [5,4-c]isoquinolin-6(5H)-one]
